Earlier results, collected in patent US20080124416A1 (RENAISSANCE HERBS, INC., priority 2006, published 2008).

Experiments:
[1] = in vitro
[2] = test system: human lens epithelial (HLE) cells; settings: in vitro
[3] = test system: hepatic fibrosis; settings: 12.5 or 25 mg/kg p.o.
[4] = in vivo
[5] = test system: osteoblastic MC3T3-E1 cells
[6] = test system: diabetes (streptozotocin-induced); settings: oral, 50 or 100 μg/kg/day for 14 days
[7] = test system: cultured bone cells from the femoral tissues; settings: micromole amounts
[8] = test system: mouse marrow cultures
[9] = test system: rat cortical and trabecular bone tissues

Question: Which “antioxidative activity against A2-PE, a pro-oxidant protein in retinal pigment cells” value [1] does the source give for `CC1=C(/C=C/C(C)=C/C=C/C(C)=C/C=C/C=C(C)/C=C/C=C(C)/C=C/C2=C(C)C[C@@H](O)CC2(C)C)C(C)(C)C[C@H](O)C1` [zeaxanthin] here?
Answer: antioxidative activity

Question: And the “UVB light-induced lipid peroxidation” value [2]?
Answer: inhibits

Question: And the “TBARS, collagen deposition, 4-hydroxyproline levels, serum ALP and AST” value [3]?
Answer: significantly decreased

Question: And the “activities of glutathione-S-transferase and glutathione” value [3]?
Answer: significantly increased

Question: For `CCCCCCCCCCCCCCCC(=O)O[C@@H]1CC(C)=C(/C=C/C(C)=C/C=C/C(C)=C/C=C/C=C(C)/C=C/C=C(C)/C=C/C2=C(C)CCCC2(C)C)C(C)(C)C1` [β-Cryptoxanthinpalmitate], which “human bioavailability of esterified vs free form” value [4] is on record?
Answer: comparable

Question: Which results are given for `CC1=C(/C=C/C(C)=C/C=C/C(C)=C/C=C/C=C(C)/C=C/C=C(C)/C=C/C2=C(C)C[C@@H](O)CC2(C)C)C(C)(C)CCC1` [β-cryptoxanthin]?
Answer: transcriptional activity, proliferation, cell differentiation and mineralization [5]: stimulates; symptoms of diabetes (serum glucose, triglycerides, calcium, body weight, bone loss) [6]: significantly attenuate; alkaline phosphatase activity and calcium content [7]: significantly increases; osteoblast-like cell formation induced by bone-resorbing factors [8]: potently inhibits; decrease in calcium content induced by prostaglandin E2 and parathyroid hormone [9]: completely inhibits
